A melting point compilation (Tetko et al.; mined from patent text by program, amines drawn as free bases though some values may be those of a salt)

| SMILES | melting point [°C] |
| --- | --- |
| O=C(NCCOc1cccnn1)C1Cc2ccccc2N1S(=O)(=O)c1ccc(-c2cccc(C(F)(F)F)c2)cc1 (stereo not given) | 65 to 71 |
| CC(=O)C1(Nc2ccc(C)cc2)CCN(CCc2ccccc2)CC1 | 134 |
| Cc1cc(C)cc(P(=O)(O)c2cc(C)cc(C)c2)c1 | 256 to 261 |
| CC=CCN(CCC12CC3CC(CC(C3)C1)C2)C(=O)NCCCc1ccncc1 | 89.5 to 93.5 |
| CCOC(=O)c1cn2c3c(c(F)c(F)cc3c1=O)OCC2CO (stereo not given) | 268 to 270 |
| CCCCOc1ccc2c(c1)C(N(C)S(C)(=O)=O)C(O)C(C)(C)O2 (stereo not given) | 138 to 140 |
| COCCCc1nc(C(F)F)ccc1C(=O)C1C(=O)C2CCC(C2)C1=O (stereo not given) | 45 to 46 |
| CC(C)(c1ccc(OP(=O)(c2ccccc2)c2ccccc2)cc1)c1ccc(OP(=O)(c2ccccc2)c2ccccc2)cc1 | 71 to 72 |
| NS(=O)(=O)c1ccc(NC(=O)Nc2ccccc2-c2ccccc2)cc1 | 229 to 231 |
| O=C(CNC(=O)c1ccc([N+](=O)[O-])c(I)c1)OCC(Cl)(Cl)Cl | 98 to 100 |
| CCCc1c2c(c3oc(C(=O)O)cc(=O)c3c1O)CCCC2 | 226 to 227 |
| OCC1(CO)CC(Cc2ccc(F)cc2)=NO1 | 93 to 97 |
| CCCCCCOc1ccc(CC2SC(=O)NC2=O)cc1 (stereo not given) | 52 to 54 |
| Cc1ccc(NCCOS(C)(=O)=O)c([N+](=O)[O-])c1 | 65 to 67 |
| CC(C)C(C#N)Nc1ccc(C(F)(F)F)cc1 (stereo not given) | 64.5 to 67 |
| O=C(Nc1ccc(Cl)cn1)N[C@@H]1C[C@@H]1c1cccc([N+](=O)[O-])c1 (racemic) | 201 to 202 |
| CCCCCCCCCCCCNc1nccc(NCCCO)n1 | 58 to 59 |
| CC(=O)Oc1ccc2ccc(=O)oc2c1CC(Br)CBr (stereo not given) | 123 to 124 |
| CCOC(=O)C1=C(Cl)C(OCC)=NS1(=O)=O | 134 to 136 |
| COCC1(C)OC(=O)N(c2cc(Cl)cc(Cl)c2)C1=O (stereo not given) | 108 to 111 |
| CC1CCC2(OC1)OC1CC3C4CC(=O)C5CCCCC5(C)C4CCC3(C)C1C2C (stereo not given) | 210 to 212 |
| Cc1nn(-c2ccccn2)c2[nH]c3cc(F)c(F)cc3c(=O)c12 | 274 to 277 |
| COC(=O)c1ccc(Cl)c(N)c1Cl | 50 to 52 |

Further lines, results first:

| melting point [°C] | SMILES |
| --- | --- |
| 63 to 67 | COc1ccccc1N1CCN(CC=CCN)CC1 |
| 140 to 141 | COc1ccc(OCCOc2ccc(C(=O)C(=O)O)cc2)cc1OC |
| 176 to 177 | O=C(NOCc1ccccc1)c1cc(F)c(Cl)nc1Cl |
| 205 to 207 | Cc1cc(OCc2ccccc2)c2cc(C(=O)N(C)C)[nH]c2c1 |
| 92 to 94 | OC(CN1CCCC1)c1cc(C(F)(F)F)nc2c(C(F)(F)F)cccc12 (stereo not given) |
| 98 to 100 | COc1ccc(S(=O)(=O)Nc2nc(-c3cccc4ccccc34)cs2)cc1 |
| 128 to 139 | COc1cc(OCc2ccncc2)ccc1/C=C/c1cc(/C=C/c2c[nH]c3ccccc23)n[nH]1 |
| 125 to 127 | COC(=O)[C@H]1Cc2c([nH]c3ccccc23)[C@@H](c2ccc3c(c2)OCO3)N1C(=O)C(C)Cl (stereo not given in full) |
| 172 to 173 | CNC(=S)C1(c2ccc(Cl)nc2)CCCCC1=O (stereo not given) |
| 160 to 161 | CN(c1cccc2cc(-c3ncc(CCC(=O)N4CCOCC4)s3)[nH]c12)S(=O)(=O)c1cccs1 |
| 208 to 210 | O=C(c1cc(-c2ccccc2)c(=O)n2c1-c1ccccc1C2)N1CCN(c2ccccc2)CC1 |
| 222 to 224 | O=C1CN(C(=O)c2ccccc2Cl)c2ccccc2N1 |
| 124 to 125 | COCCOc1ccc(CN2C(=O)C3(COc4cc5c(cc43)OCCO5)c3ccccc32)cc1 (stereo not given) |
| 196 to 197 | COc1ccc(C2=NN(C3CCN(c4ccc([N+](=O)[O-])cc4)CC3)C(=O)[C@@H]3CC=CC[C@H]23)cc1OC |
| 102 to 104 | O=[N+]([O-])c1ccc2c(ccn2Cc2ccccc2)c1 |
| 128 to 130 | COc1ccc(CN(C)CCC2CN(C)C(=S)c3cccnc3O2)cc1 (stereo not given) |
| 257 to 260 | COc1ccc([N+](=O)[O-])c(C=C2C(=O)NC(=O)N2C)c1 |
